Values of other authors, collected in PMC6168745 (Diabetes, Obesity & Metabolism, 2016).

Key:
[1] = system: people with type 2 diabetes
[2] = system: participants with type 2 diabetes; conditions: + insulin glargine + metformin; CGM

Substance: liraglutide
- MAGE, large amplitude of glycaemic excursions and within-day s.d. of mean daily glucose ([1]; once daily, comparative trials with insulin): significantly reduced
- MAGE from baseline ([1]; small uncontrolled study of Japanese people with type 2 diabetes): significantly reduced

Substance: exenatide [Twice‐daily exenatide]
- glucose CV and MAGE compared with prandial insulin [2]: significantly reduced
